Earlier results as cited in US20020018777A1, “STERILIZATION OF VIRUS INFECTED PLASMA” (priority 1995, published 2002).

Settings: concentrated BPL, animals

Structure (SMILES): O=C1CCO1 [BPL, β-propiolactone]
- carcinogenicity: carcinogenic
